This test has as its target human σ1 receptor and human μ-opioid receptor. Kind of test: Human σ1 receptor radioligand assay and human μ-opioid receptor radioligand assay (μ and σ1 dual binding). Further details: key to μ and σ1 dual binding: +: Both Ki-μ and Ki-σ1>=500 nM; ++: One Ki<500 nM while the other Ki is >=500 nM; +++: Both Ki-μ and Ki-σ1<500 nM; ++++: Both Ki-μ and Ki-σ1<100 nM.
Setting [1] is: combined class for Ki-μ ([3H]-DAMGO, CHO-K1 membranes) and Ki-σ1 ([3H](+)-pentazocine, HEK-293 membranes).

pKi: −log10 of the molar value. Read-outs that look alike come from different tables or passages of the source.

Broadly, the pKi is the Ki on a negative log10 scale, so that one unit is a factor of ten. As for `COCCN1CCc2ccccc2C12CCN(CCc1cccnc1)CC2` [Example 124, 2-(2-Methoxyethyl)-1′-(2-(pyridin-3-yl)ethyl)-3,4-dihydro-2H-spiro[isoquinoline-1,4′-piperidine]], the negative-log Ki (pKi) under setting [1] was no more than 6.30.

Turning to `CN1CCc2ccccc2C12CCN(C[C@H](O)c1ccncc1F)CC2` [Example 142, (R)-1-(3-fluoropyridin-4-yl)-2-(2-methyl-3,4-dihydro-2H-spiro[isoquinoline-1,4′-piperidine]-1′-yl)ethanol], the negative-log Ki (pKi) is greater than 6.30. On to `CNCCN1CCC2(CC1)c1ccccc1CCN2C(C)=O` [Example 47, 1-(1′-(2-(Methylamino)ethyl)-3,4-dihydro-2H-spiro[isoquinoline-1,4′-piperidine]-2-yl)ethanone], for which the negative logarithm of the Ki (pKi) under setting [1] was no more than 6.30.

`COc1ccc2c(c1)CCN(C)C21CCN(CCc2ccccc2)CC1` [Example 55, 6-methoxy-2-methyl-1′-phenethyl-3,4-dihydro-2H-spiro[isoquinoline-1,4′-piperidine]] showed a pKi greater than 7.00. Consider `CN(C(=O)CCN1CCC2(CC1)c1ccccc1CCN2C)c1ccccc1` [Example 81, N-methyl-3-(2-methyl-3,4-dihydro-2H-spiro[isoquinoline-1,4′-piperidine]-1′-yl)-N-phenylpropanamide], for which the “μ and σ1 dual binding” value was “++”. With `CN1Cc2ccccc2C12CCN(CC(=O)N1CCC(F)(F)CC1)CC2` [Example 156, 1-(4,4-difluoropiperidin-1-yl)-2-(2-methylspiro[isoindoline-1,4′-piperidine]-1′-yl)ethanone], the pKi under setting [1] is no more than 6.30. Turning to `CN(CC1CC1)C(=O)CN1CCC2(CC1)c1ccccc1CCN2C` [Example 112, N-(cyclopropylmethyl)-N-methyl-2-(2-methyl-3,4-dihydro-2H-spiro[isoquinoline-1,4′-piperidine]-1′-yl)acetamide], the pKi is greater than 6.30. As to `CC(=O)Nc1cccc(CCN2CCC3(CC2)c2ccccc2CCN3C)c1` [Example 119, N-{3-[2-(2-Methyl-3,4-dihydro-2H-spiro[isoquinoline-1,4′-piperidin]-1′-yl)-ethyl]-phenyl}-acetamide], the negative logarithm of the Ki (pKi) was greater than 6.30. As to `CC(=O)OC(CN1CCC2(CC1)c1ccccc1CCN2C(C)=O)c1ccccc1` (stereo not shown) [Example 39, 2-(2-Acetyl-3,4-dihydro-2H-spiro[isoquinoline-1,4′-piperidine]-1′-yl)-1-phenylethyl acetate], the negative logarithm of the Ki (pKi) under setting [1] is no more than 6.30.

Turning to `CN1CCc2ccccc2C12CCN(CCc1ccccn1)CC2` [Example 75, 2-methyl-1′-(2-(pyridin-2-yl)ethyl)-3,4-dihydro-2H-spiro[isoquinoline-1,4′-piperidine]], the pKi was greater than 6.30. Same read-out and setting: next, `CC(=O)N1CCc2ccccc2C12CCN(CCOC(C)C)CC2` [Example 11, 1-(1′-(2-isopropoxyethyl)-3,4-dihydro-2H-spiro[isoquinoline-1,4′-piperidine]-2-yl)ethanone]: greater than 6.30; `OCCN1CCc2ccccc2C12CCN(CCc1cccnc1)CC2` [Example 125, 2-[1′-(2-Pyridin-3-yl-ethyl)-3,4-dihydro-spiro[isoquinoline-1,4′-piperidin]-2-yl]-ethanol]: greater than 6.30.

Compound `CN1CCc2ccccc2C12CCN(CCc1cccc(N)c1)CC2` [Example 117, 3-[2-(2-Methyl-3,4-dihydro-2H-spiro[isoquinoline-1,4′-piperidin]-1′-yl)-ethyl]-phenylamine] showed a pKi greater than 7.00.

As to `CN1CCc2ccccc2C12CCN(CC(O)c1ccccn1)CC2` (stereo not shown) [Example 97, 2-(2-methyl-3,4-dihydro-2H-spiro[isoquinoline-1,4′-piperidine]-1′-yl)-1-(pyridin-2-yl)ethanol], the “μ and σ1 dual binding” value is “++”. As to `CN1CCc2cc(O)ccc2C12CCN(CCc1ccccc1)CC2` [Example 131, 2-Methyl-1′-phenethyl-3,4-dihydro-2H-spiro[isoquinoline-1,4′-piperidin]-6-ol], the pKi was greater than 7.00. On to `CN1CCc2ccccc2C12CCN(CC(=O)N1CCCC(F)(F)C1)CC2` [Example 88, 1-(3,3-difluoropiperidin-1-yl)-2-(2-methyl-3,4-dihydro-2H-spiro[isoquinoline-1,4′-piperidine]-1′-yl)ethanone], for which the “μ and σ1 dual binding” value is recorded as “++”. Consider `FC(F)(F)CN1CCc2ccccc2C12CCN(CCc1ccccc1)CC2` [Example 133, 1′-Phenethyl-2-(2,2,2-trifluoroethyl)-3,4-dihydro-2H-spiro[isoquinoline-1,4′-piperidine]], for which the negative logarithm of the Ki (pKi) is greater than 7.00. `CCN(CC)C(=O)CN1CCC2(CC1)c1ccccc1CCN2CC` [Example 155, N,N-diethyl-2-(2-ethyl-3,4-dihydro-2H-spiro[isoquinoline-1,4′-piperidine]-1′-yl)acetamide] gave a negative-log Ki (pKi) greater than 6.30.

Regarding `CCN1CCc2ccccc2C12CCN(CC(=O)N1CCC(F)(F)CC1)CC2` [Example 145, 1-(4,4-difluoropiperidin-1-yl)-2-(2-ethyl-3,4-dihydro-2H-spiro[isoquinoline-1,4′-piperidine]-1′-yl)ethanone], the negative-log Ki (pKi) is greater than 6.30.

Take `CN1CCc2ccccc2C12CCN(CC(O)c1cccnc1)CC2` (stereo not shown) [Example 96, 2-(2-methyl-3,4-dihydro-2H-spiro[isoquinoline-1,4′-piperidine]-1′-yl)-1-(pyridin-3-yl)etanol]: the “μ and σ1 dual binding” value is listed as “++”.

In the case of `CC(=O)N1CCc2ccccc2C12CCN(CCC(=O)N(C)C)CC2` [Example 22, 3-(2-acetyl-3,4-dihydro-2H-spiro[isoquinoline-1,4′-piperidine]-1′-yl)-N,N-dimethylpropanamide], the pKi under setting [1] was no more than 6.30. Turning to `CN1CCc2ccccc2C12CCN(CCc1ccncc1)CC2` [Example 121, 2-Methyl-1′-(2-(pyridin-4-yl)ethyl)-3,4-dihydro-2H-spiro[isoquinoline-1,4′-piperidine]], the negative-log Ki (pKi) is greater than 6.30. As to `CN1CCc2ccccc2C12CCN(CCC1CCOCC1)CC2` [Example 74, 2-methyl-1′-(2-(tetrahydro-2H-pyran-4-yl)ethyl)-3,4-dihydro-2H-spiro[isoquinoline-1,4′-piperidine]], the pKi is greater than 6.30. Turning to `CC(=O)N1CCc2ccccc2C12CCN(CCOc1ccccc1)CC2` [Example 20, 1-(1′-(2-phenoxyethyl)-3,4-dihydro-2H-spiro[isoquinoline-1,4′-piperidine]-2-yl)ethanone], the “μ and σ1 dual binding” value is “++”. `O=C(N1CCc2ccccc2C12CCN(CCc1ccccc1)CC2)C(F)(F)F` [Example 132, 2,2,2-Trifluoro-1-(1′-phenethyl-3,4-dihydro-2H-spiro[isoquinoline-1,4′-piperidine]-2-yl)ethanone]: the pKi under setting [1] is no more than 6.30. The compound `CCN(C(=O)CN1CCC2(CC1)c1ccccc1CCN2C)C(C)C` [Example 89, N-ethyl-N-isopropyl-2-(2-methyl-3,4-dihydro-2H-spiro[isoquinoline-1,4′-piperidine]-1′-yl)acetamide] gave a negative logarithm of the Ki (pKi) greater than 6.30. On to `CN1CCc2ccccc2C12CCN(CCN1CCOCC1=O)CC2` [Example 80, 4-(2-(2-methyl-3,4-dihydro-2H-spiro[isoquinoline-1,4′-piperidine]-1′-yl)ethyl)morpholin-3-one], for which the pKi under setting [1] was no more than 6.30. For the compound `CN(C(=O)CN1CCC2(CC1)c1ccccc1CCN2C)c1ccccc1` [Example 72, N-methyl-2-(2-methyl-3,4-dihydro-2H-spiro[isoquinoline-1,4′-piperidine]-1′-yl)-N-phenylacetamide], the “μ and σ1 dual binding” value was “++”.
